Measurements as given in patent US7914797B2 (priority 2005, dated 2011).

Target: HLA-A2 on T2 cells (Homo sapiens, UniProt P04439, D140Y/D185E/D98H/E176V/E277Q/G131W/G231S/I119V/I121R/I166T/I218V/L300P/L318F/N151K/N90K/P208A/P217A/Q86G/Q94H/R138H/R169H/T345S)
Type: binding

Sequence | binding of peptide to HLA-A2 on T2 cells
PKYVKQNTLKLAT [HA 307-319] | some low binding capacity, which was not dose dependent
LLTEVETYV [M1 3-11] | High and dose dependent binding
ELRSRYWAI [NP 380-388] | some low binding capacity, which was not dose dependent
SKAYSNCYPYDVPDYASL [HA 91-108 peptide] | binding capacity only at the higher (100 μM) concentration
